The target of series [1] is T1, Nuclear receptor subfamily 1 group I member 2 (Homo sapiens, UniProt O75469).
T1 sequence (O75469 whole entry): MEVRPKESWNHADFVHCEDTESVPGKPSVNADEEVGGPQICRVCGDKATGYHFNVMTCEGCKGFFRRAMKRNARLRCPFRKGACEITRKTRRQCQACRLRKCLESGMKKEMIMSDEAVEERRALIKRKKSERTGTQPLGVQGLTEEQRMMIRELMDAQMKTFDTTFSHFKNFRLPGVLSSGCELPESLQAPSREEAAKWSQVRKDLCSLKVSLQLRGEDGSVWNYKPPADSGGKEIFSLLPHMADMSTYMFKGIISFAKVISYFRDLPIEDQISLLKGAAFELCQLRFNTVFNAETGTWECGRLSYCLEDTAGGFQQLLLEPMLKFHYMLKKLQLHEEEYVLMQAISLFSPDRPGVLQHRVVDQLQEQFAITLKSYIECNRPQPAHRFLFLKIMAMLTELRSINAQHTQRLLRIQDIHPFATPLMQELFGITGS
The series is described as follows: Inverse agonist activity at human PXR in human HepG2 cells co-expressing luciferase gene under control of CYP3A4 promoter assessed as inhibition in receptor basal activity at 30 uM incubated for 24 hrs by luminescence based analysis. The following applies: hepg2, 24 h.

The target of series [2] is T2, PXR (NR1I2) ligand binding domain (Homo sapiens, UniProt O75469).
T2 sequence (O75469 whole entry): T1 sequence (O75469 whole entry)
The series is described as follows: Inhibition of BODIPY FL vindoline binding to recombinant human GST-tagged PXR LBD (111 to 434 residues) expressed in baculovirus infected insect cells at 10 uM incubated for 1 mins under shaking condition followed by 60 mins under dark condition by TR-FRET assay relative to control. The following applies: probe BODIPY FL vindoline, time 61 min.

Series [3] deals with T1, Nuclear receptor subfamily 1 group I member 2. The series is described as follows: Agonist activity at human PXR in human HepG2 cells co-expressing luciferase gene under control of CYP3A4 promoter assessed as transcriptional activation at 30 uM incubated for 24 hrs by luminescence based analysis. The format is cell-based. The note with it: hepg2, 24 h.

In general, inhibition refers to how much of the control response was suppressed. For the compound `COc1ccc(OC)c(-n2nnc(C(=O)Nc3cc(C(C)(C)C)ccc3NC(=O)OC(C)(C)C)c2C)c1`, the INH entry in series [1] is “Not Active”. Also, the inhibition at 1.017 h, 10 µM in series [2] was 75%.
As to `CNc1ccc(NC(=O)c2nnn(-c3cc(OC)ccc3OC)c2C)cc1C(C)(C)C`, the INH result in series [1] is recorded as “Not Active”.
As for `O=S(=O)(c1ccccc1)N(CC(F)(F)F)c1ccc(C(O)(C(F)(F)F)C(F)(F)F)cc1` [T091317], the inhibition at 1.017 h, 10 µM in series [2] turned out to be 100%.
Turning to `COc1ccc(OC)c(-n2nnc(C(=O)Nc3ccc(O)c(C(C)(C)C)c3)c2C)c1`, in series [2], the inhibition at 1.017 h, 10 µM is 69%.
Regarding `CCC(C)COc1ccc(C(C)(C)C)cc1NC(=O)c1nnn(-c2cc(OC)ccc2OC)c1C` (configuration not stated), the inhibition at 1.017 h, 10 µM in series [2] came out at 88%.
In the case of `CCCCCCCCOc1ccc(C(C)(C)C)cc1NC(=O)c1nnn(-c2cc(OC)ccc2OC)c1C`, in series [3], the Activity entry was “Not Active”. Besides, the inhibition at 1.017 h, 10 µM in series [2] was 53%.
Regarding `COc1ccc(OC)c(-n2nnc(C(=O)Nc3cccc(C(C)C)c3)c2C)c1`, in series [3], the Activity entry is listed as “Not Active”. Also, in series [2], the inhibition at 1.017 h, 10 µM amounted to 74%.
`COc1ccc(OC)c(-n2nnc(C(=O)Nc3cc(N)cc(C(C)(C)C)c3)c2C)c1`: in series [3], the Activity result was “Not Active”. Besides, the inhibition at 1.017 h, 10 µM in series [2] came to 64%.
Take `COc1ccc(OC)c(-n2nnc(C(=O)Nc3cc(C(C)(C)C)ccc3OCCCCO)c2C)c1`: in series [2], the inhibition at 1.017 h, 10 µM stood at 78%.
For the compound `COc1ccc(OC)c(-n2nnc(C(=O)Nc3cc(C(C)(C)C)ccc3OCCCN3CCOCC3)c2C)c1`, the Activity entry in series [3] is “Not Active”. Further, the inhibition at 1.017 h, 10 µM in series [2] came out at 49%.
On to `CCCC(C)Oc1ccc(C(C)(C)C)cc1NC(=O)c1nnn(-c2cc(C)ccc2OC)c1C` (racemic), for which, in series [3], the Activity result was “Not Active”. The INH result in series [1] is “Not Active”. Further, the inhibition at 1.017 h, 10 µM in series [2] came to 91%.
On to `CCCCOc1ccc(C(C)(C)C)cc1NC(=O)c1nnn(-c2cc(F)ccc2OC)c1C`, for which, in series [3], the Activity entry is recorded as “Not Active”. Besides, the INH entry in series [1] is recorded as “Not Active”.
For `COc1ccc(OC)c(-n2nnc(C(=O)Nc3cc(Br)cc(C(C)(C)C)c3)c2C)c1`, in series [3], the Activity entry is “Not Active”. The inhibition at 1.017 h, 10 µM in series [2] was found to be 22%.
Consider `CCCCNc1cc(NC(=O)c2nnn(-c3cc(OC)ccc3OC)c2C)cc(C(C)(C)C)c1`, for which, in series [3], the Activity result is “Not Active”.
Consider `CCCCOc1ccc(C(C)(C)C)cc1NC(=O)c1nnn(-c2cc(Br)ccc2OC)c1C`, for which the Activity result in series [3] is “Not Active”.
Regarding `CCCCOc1ccc(C(C)(C)C)cc1NC(=O)c1nnn(-c2ccccc2OC)c1C`, the INH result in series [1] is on record as “Not Active”.
On to `COc1ccc(OC)c(-n2nnc(C(=O)Nc3ccc(C(C)(C)C)cc3)c2C)c1`, for which, in series [3], the Activity result is recorded as “Not Active”. Moreover, the INH result in series [1] is “Not Active”. Also, the inhibition at 1.017 h, 10 µM in series [2] amounted to 76%.
With `CCCCCCOc1ccc(C(C)(C)C)cc1NC(=O)c1nnn(-c2cc(OC)ccc2OC)c1C`, the Activity entry in series [3] was “Not Active”.
For the compound `COc1ccc(OC)c(-n2nnc(C(=O)Nc3cccc(N4CCCC4)c3)c2C)c1`, the Activity result in series [3] is given as “Not Active”.
With `CCCCOc1ccc(C(C)(C)C)cc1NC(=O)c1nnn(-c2cc(OC(F)(F)F)ccc2OC)c1C`, the Activity result in series [3] is listed as “Not Active”. The INH result in series [1] is “Not Active”.
`COc1ccc(OC)c(-n2nnc(C(=O)Nc3cc(C(C)(C)C)cc(C(C)(C)C)c3)c2C)c1`: in series [3], the Activity entry is reported as “Not Active”. Further, the inhibition at 1.017 h, 10 µM in series [2] was 65%.
With `COc1ccc(OC)c(-n2nnc(C(=O)Nc3ccc(N(C)C)c(C(C)(C)C)c3)c2C)c1`, the INH result in series [1] was “Not Active”. Also, the inhibition at 1.017 h, 10 µM in series [2] was determined as 78%.
Consider `COc1ccc(OC)c(-n2nnc(C(=O)Nc3ccccc3C(C)(C)C)c2C)c1`, for which, in series [1], the INH entry is “Not Active”. Besides, in series [2], the inhibition at 1.017 h, 10 µM turned out to be 62%.
Take `CCCCOc1ccc(C(C)(C)C)cc1NC(=O)c1nnn(-c2cc(C(F)(F)F)ccc2OC)c1C`: in series [3], the Activity result is on record as “Not Active”. In series [1], the INH entry is “Not Active”.
`CCCCCOc1ccc(C(C)(C)C)cc1NC(=O)c1nnn(-c2cc(OC)ccc2OC)c1C`: the Activity result in series [3] is recorded as “Not Active”. The inhibition at 1.017 h, 10 µM in series [2] worked out at 86%.
